Test system: BOIVE: whitehead broom (Borerria verticillata)
Test: Postemergence herbicidal activity of mixtures in the field (visual weed control)
Type: in vivo
Method: Field trials were conducted in Brazil in pasture area cultivated with Brachiaria brizantha using standard herbicide small-plot research methodology. The plot size used was 3×8 meter (m; width×length) with 4 replicates per treatment. The pasture was grown using normal cultural practices for fertilization, management, and maintenance to ensure good growth of the crop and the weeds.
All treatments in the field trials were applied using a carbon dioxide (CO2) backpack air sprayer with flat fan nozzles (110.03°), calibrated to apply 250 liters per hectare (L/ha) spray volume at approximately 35 pounds per square inch (PSI). Formulations of aminopyralid (triisopropanolammonium salt) at 100 grams acid equivalent per hectare (g ae/ha) and aminopyralid (potassium salt, 525grams acid equivalent per kilogram (g ae/kg))+metsulfuron-methyl (94.5 grams active ingredient per kilogram (g ai/kg)) at 118 grams per hectare (g/ha) were mixed with imazapic at 70 and 140 g ae/ha and water+Joint Mineral Oil at appropriate formulated product rates to achieve the desired rates based on a unit area of application (hectare) as shown. Treatments were rated at 15 to 281 days after application (DAA) as compared to the untreated control plants. Visual weed control of BOIVE was scored on a scale of 0 to 100 percent where 0 corresponds to no injury and 100 corresponds to complete kill.
All treatment results, both for the single product and mixtures, are an average of 3 to 4 replicates and the tank-mix interactions are significant at the […] level.
Colby's equation was used to determine the herbicidal effects expected from the mixtures (Colby, S.R. Calculation of the synergistic and antagonistic response of herbicide combinations. Weeds 1967, 15, 20-22). […]
The experiments described herein in Table 2 were performed such that the “B” component in Colby's equation was the activity for the combination of aminopyralid and metsulfuron and only the activity for the combination was determined. […]

Row | Structure (SMILES) | % Visual Control BOIVE (281 DAA) Obs (Aminopyralid (triisopropanolammonium salt) 100 g ae/ha alone) [%] | % Visual Control BOIVE (281 DAA) Obs (Imazapic (ammonium salt) 70 g ae/ha alone, postemergence field trial, Brazil pasture) [%] | % Visual Control BOIVE (281 DAA) Obs (Imazapic (ammonium salt) 140 g ae/ha alone, postemergence field trial) [%]
1 | Nc1cc(Cl)nc(C(=O)O)c1Cl [Aminopyralid, 4-amino-3,6-dichloro-2-pyridinecarboxylic acid] | 41 |  | 
2 | Cc1cnc(C2=NC(C)(C(C)C)C(=O)N2)c(C(=O)O)c1 (racemic) [Imazapic, (±)-2-[4,5-dihydro-4-methyl-4-(1-methylethyl)-5-oxo-1H-imidazol-2-yl]-5-methyl-3-pyridinecarboxylic acid] |  | 0 | 14

From patent US20150173358A1, “HERBICIDAL COMPOSITIONS CONTAINING IMAZAPIC, AMINOPYRALID AND OPTIONALLY METSULFURON” (DOW AGROSCIENCES LLC, priority 2013, published 2015)
